Consider 18 compounds from PubChem BioAssay AID248 (DTP/NCI, 2004).

This assay relates to L1210 leukemia ip in BDF1 mice, survival T/C. Briefly: NCI In Vivo Anticancer Drug Screen. Data for tumor model L1210 Leukemia (intraperitoneal) in B6D2F1 (BDF1) mice. The conditions noted are these: endpoint: mean survival time, higher = longer survival. The gist of the method: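 Transplantable tumor model; survival measured in treated vs vehicle control mice. Value = treated/control.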

Where [1] appears, read: dose: 100.0 mg/kg/injection, schedule: Q01DX009 (ip), vehicle: Klucel (hydroxypropylcellulose) (HPC).
Setting [2] is: dose: 100.0 mg/kg/injection, schedule: Q04DX002 (ip), vehicle: Klucel (hydroxypropylcellulose) (HPC).
[3] abbreviates: dose: 200.0 mg/kg/injection, schedule: Q01DX009 (ip), vehicle: Klucel (hydroxypropylcellulose) (HPC).
Where [4] appears, read: dose: 200.0 mg/kg/injection, schedule: Q04DX002 (ip), vehicle: Klucel (hydroxypropylcellulose) (HPC).
Where [5] appears, read: dose: 400.0 mg/kg/injection, schedule: Q01DX009 (ip), vehicle: Klucel (hydroxypropylcellulose) (HPC).
The mark [6] stands for this setting: dose: 400.0 mg/kg/injection, schedule: Q04DX002 (ip), vehicle: Klucel (hydroxypropylcellulose) (HPC).
The mark [7] stands for this setting: dose: 50.0 mg/kg/injection, schedule: Q01DX009 (ip), vehicle: saline with Tween-80.
[8] abbreviates: dose: 100.0 mg/kg/injection, schedule: Q01DX009 (ip), vehicle: saline with Tween-80.
Setting [9] is: dose: 200.0 mg/kg/injection, schedule: Q01DX009 (ip), vehicle: saline with Tween-80.
The mark [10] stands for this setting: dose: 200.0 mg/kg/injection, schedule: Q04DX003 (ip), vehicle: Klucel (hydroxypropylcellulose) (HPC).

Several values for one entry are separate records, joined by “and”; a condition that tells them apart may be missing. Equal entries are not always repeated. Inconclusive results and toxic doses are left out.

On to `CC(=Nc1cccc2ccccc12)c1c(O)cc(C)oc1=O`, for which the T/C is, setting by setting: under setting [1], 100 % of control; under setting [2], 98 % of control; under setting [3], 95 % of control; under setting [4], 98 % of control; under setting [5], 92 % of control; under setting [6], 95 % of control.
Turning to `O=C(O)C1=CCCc2ccc(Br)cc21`, the T/C under setting [7] is 93 % of control, the T/C under setting [8] was 95 % of control and the T/C under setting [9] was 98 % of control.
On to `CC12CCC(Cl)CC1=CCC1C2CCC2(C)c3nc(N)ncc3CC12` (centres undefined), for which the T/C runs as follows: (dose: 100.0 mg/kg/injection, schedule: Q04DX003 (sc), vehicle: gum acacia) 101 % of control; (dose: 200.0 mg/kg/injection, schedule: Q04DX003 (sc), vehicle: gum acacia) 92 % of control; (dose: 400.0 mg/kg/injection, schedule: Q04DX003 (sc), vehicle: gum acacia) 103 % of control.
Take `COc1cc(N2C(=O)C=CC2=O)ccc1N1C(=O)C=CC1=O`: the T/C is, setting by setting: (dose: 5.0 mg/kg/injection, schedule: Q01DX001 (ip), vehicle: saline) 111 % of control; (dose: 10.0 mg/kg/injection, schedule: Q01DX001 (ip), vehicle: saline) 111 % of control.
Consider `Cc1cccc(C)c1NC(=O)OCCOc1ccc(Cl)cc1Cl`, for which the T/C is, setting by setting: under setting [7], 90 % of control; under setting [8], 95 % of control; under setting [9], 95 % of control.
Turning to `NC(Cc1ccccc1)c1ccccc1` (centres undefined) (tested in a mixture with another compound), the T/C is, setting by setting: (dose: 100.0 mg/kg/injection, schedule: Q04DX003 (ip), vehicle: saline) 89 % of control and 95 % of control; (dose: 200.0 mg/kg/injection, schedule: Q04DX003 (ip), vehicle: saline) 89 % of control.
`CCC(CC)(COS(=O)(=O)c1ccc(C)cc1)COS(=O)(=O)c1ccc(C)cc1`: the T/C by setting is: under setting [1], 93 % of control; under setting [3], 89 % of control; under setting [10], 94 % of control; under setting [5], 88 % of control; (dose: 400.0 mg/kg/injection, schedule: Q04DX003 (ip), vehicle: Klucel (hydroxypropylcellulose) (HPC)) 96 % of control.
With `COC(=O)c1ccc(N(C)CCC(=O)COC(C)=O)cc1`, the T/C runs as follows: (dose: 100.0 mg/kg/injection, schedule: Q01DX001 (ip), vehicle: saline) 103 % of control; (dose: 200.0 mg/kg/injection, schedule: Q01DX001 (ip), vehicle: saline) 97 % of control; (dose: 400.0 mg/kg/injection, schedule: Q01DX001 (ip), vehicle: saline) 95 % of control.
`COc1ccc2c(c1)CC/C(=C\c1ccccn1)C2=O`: the T/C by setting is: (dose: 100.0 mg/kg/injection, schedule: Q04DX003 (ip), vehicle: carboxymethylcellulose (CMC)) 98 % of control; (dose: 200.0 mg/kg/injection, schedule: Q04DX003 (ip), vehicle: carboxymethylcellulose (CMC)) 97 % of control; (dose: 400.0 mg/kg/injection, schedule: Q04DX003 (ip), vehicle: carboxymethylcellulose (CMC)) 98 % of control.
On to `CC(C)(C)N=Cc1ccccc1O.CC(C)(C)N=Cc1ccccc1O.[Cu]`, for which the T/C (dose: 6.25 mg/kg/injection, schedule: Q04DX003 (ip), vehicle: saline with Tween-80) was 94 % of control; the T/C (dose: 12.5 mg/kg/injection, schedule: Q04DX003 (ip), vehicle: saline with Tween-80) was 104 % of control; the T/C (dose: 25.0 mg/kg/injection, schedule: Q04DX003 (ip), vehicle: saline with Tween-80) was 96 % of control.
For the compound `COC(=O)C1=COC(C)C2CN3CCc4c([nH]c5cc(OC)ccc45)C3CC12` (centres undefined), the T/C was 100 % of control (dose: 22.0 mg/kg/injection, schedule: Q01DX Z (ip), vehicle: other) and 86 % of control (dose: 44.0 mg/kg/injection, schedule: Q01DX Z (ip), vehicle: other).
Consider `O=C1OC2C3C=CC(CC3)C2O1` (centres undefined), for which the T/C was 105 % of control (dose: 7.5 mg/kg/injection, schedule: Q04DX002 (ip), vehicle: Klucel (hydroxypropylcellulose) (HPC)); 101 % of control (dose: 15.0 mg/kg/injection, schedule: Q01DX001 (ip), vehicle: carboxymethylcellulose (CMC)); 99 % of control (dose: 15.0 mg/kg/injection, schedule: Q04DX002 (ip), vehicle: Klucel (hydroxypropylcellulose) (HPC)); 114 % of control (dose: 30.0 mg/kg/injection, schedule: Q01DX001 (ip), vehicle: carboxymethylcellulose (CMC)); 96 % of control (dose: 30.0 mg/kg/injection, schedule: Q04DX002 (ip), vehicle: Klucel (hydroxypropylcellulose) (HPC)).
Consider `CC[C@@]1(O)c2cc3n(c(=O)c2CO[C@H]1O)Cc1cc2ccccc2nc1-3`, for which the T/C was 96 % of control (dose: 0.5 mg/kg/injection, schedule: Q01DX Z (ip), vehicle: saline); 94 % of control (dose: 1.0 mg/kg/injection, schedule: Q01DX Z (ip), vehicle: saline); 97 % of control (dose: 2.0 mg/kg/injection, schedule: Q01DX Z (ip), vehicle: saline); 104 % of control (dose: 4.0 mg/kg/injection, schedule: Q01DX015 (ip), vehicle: saline); 97 % of control (dose: 4.0 mg/kg/injection, schedule: Q01DX Z (ip), vehicle: saline); 108 % of control (dose: 8.0 mg/kg/injection, schedule: Q01DX007 (ip), vehicle: other). For the same compound, the T/C reads like this: (dose: 8.0 mg/kg/injection, schedule: Q01DX012 (ip), vehicle: saline) 95 % of control; (dose: 8.0 mg/kg/injection, schedule: Q01DX015 (ip), vehicle: saline) 106 % of control; (dose: 16.0 mg/kg/injection, schedule: Q01DX007 (ip), vehicle: other) 112 % of control; (dose: 16.0 mg/kg/injection, schedule: Q01DX012 (ip), vehicle: saline) 108 % of control; (dose: 16.0 mg/kg/injection, schedule: Q01DX015 (ip), vehicle: saline) 150 % of control.
Regarding `CC(=O)Oc1cccc(OC(=O)Nc2ccccc2F)c1`, the T/C was 103 % of control (dose: 25.0 mg/kg/injection, schedule: Q01DX009 (ip), vehicle: saline with Tween-80); 108 % of control under setting [7]; 103 % of control and 113 % of control under setting [8]; 95 % of control and 103 % of control under setting [9].
Regarding `CC(C)(C)C(=O)CC(=O)C(C)(C)C.CC(C)(C)C(=O)CC(=O)C(C)(C)C.CC(C)(C)C(=O)CC(=O)C(C)(C)C.[Yb]`, the T/C was 97 % of control (dose: 100.0 mg/kg/injection, schedule: Q01DX005 (ip), vehicle: Klucel (hydroxypropylcellulose) (HPC)); 97 % of control under setting [1]; 96 % of control under setting [2]; 105 % of control (dose: 200.0 mg/kg/injection, schedule: Q01DX005 (ip), vehicle: Klucel (hydroxypropylcellulose) (HPC)); 97 % of control under setting [3]; 107 % of control under setting [4]. Moreover, the T/C is, setting by setting: (dose: 400.0 mg/kg/injection, schedule: Q01DX005 (ip), vehicle: Klucel (hydroxypropylcellulose) (HPC)) 101 % of control; under setting [5], 97 % of control; under setting [6], 96 % of control.
For the compound `NC(=O)c1cc(Cl)cc(Cl)c1Br`, the T/C (dose: 100.0 mg/kg/injection, schedule: Q04DX003 (ip), vehicle: other) was 95 % of control and the T/C (dose: 200.0 mg/kg/injection, schedule: Q04DX003 (ip), vehicle: other) was 103 % of control.
Consider `CCOC(=O)c1cc(C)n(-c2ccc(C(=O)O)cc2)c1C`, for which the T/C reads like this: (dose: 50.0 mg/kg/injection, schedule: Q01DX009 (ip), vehicle: Klucel (hydroxypropylcellulose) (HPC)) 97 % of control; under setting [1], 95 % of control; (dose: 100.0 mg/kg/injection, schedule: Q04DX003 (ip), vehicle: Klucel (hydroxypropylcellulose) (HPC)) 98 % of control; under setting [3], 95 % of control; under setting [10], 91 % of control.
As to `NCCS(=O)CCN`, the T/C by setting is: (dose: 100.0 mg/kg/injection, schedule: Q01DX009 (ip), vehicle: saline) 100 % of control; (dose: 200.0 mg/kg/injection, schedule: Q01DX009 (ip), vehicle: saline) 107 % of control; (dose: 400.0 mg/kg/injection, schedule: Q01DX009 (ip), vehicle: saline) 94 % of control.
